Assay results reported in patent publication US10092575B2, “Substituted thiophene- and furan-fused azolopyrimidine-5-(6H)-one compounds” (DART NEUROSCIENCE (CAYMAN) LTD., priority 2012, dated 2018).

Target: human PDE1b enzyme (Homo sapiens (Human), UniProt Q01064)
Test: PDE1b inhibitory assay (IMAP TR-FRET)
Settings: not given

Q: Which EC50 does the source give for O=c1n(Cc2ccc(F)cc2)c2sc3c(c2c2ncnn12)CCOC3 [Example 92, 6-(4-Fluorobenzyl)-6,8,10,11-tetrahydro-5H-pyrano[4′,3′:4,5]thieno[3,2-e][1,2,4]triazolo[1,5-c]pyrimidin-5-one] here?
A: The EC50 was 1000 to 10000 nM.

Q: O=c1n(Cc2ccc(Cl)c(F)c2)c2sc3c(c2c2ncnn12)CCOC3 [Example 93, 6-(4-Chloro-3-fluorobenzyl)-6,8,10,11-tetrahydro-5H-pyrano[4′,3′:4,5]thieno[3,2-e][1,2,4]triazolo[1,5-c]pyrimidin-5-one] was tested. Which EC50 did it give?
A: Its EC50 is 100 to 1000 nM.

Q: With O=c1n(Cc2ccc(Cl)cc2F)c2sc3c(c2c2ncnn12)CCOC3 [Example 94, 6-(4-Chloro-2-fluorobenzyl)-6,8,10,11-tetrahydro-5H-pyrano[4′,3′:4,5]thieno[3,2-e][1,2,4]triazolo[1,5-c]pyrimidin-5-one] as the molecule, how does the EC50 read?
A: Its EC50 is 100 to 1000 nM.

Q: For COc1ccc(Cn2c(=O)n3ncnc3c3c4c(sc32)COCC4)cc1F [Example 95, 6-(3-Fluoro-4-methoxybenzyl)-6,8,10,11-tetrahydro-5H-pyrano[4′,3′:4,5]thieno[3,2-e][1,2,4]triazolo[1,5-c]pyrimidin-5-one], which EC50 is on record?
A: The EC50 was 100 to 1000 nM.

Q: Which EC50 does the source give for O=c1n(Cc2ccc(OC(F)(F)F)cc2)c2sc3c(c2c2ncnn12)CCOC3 [Example 96, 6-(4-(Trifluoromethoxy)benzyl)-6,8,10,11-tetrahydro-5H-pyrano[4′,3′:4,5]thieno[3,2-e][1,2,4]triazolo[1,5-c]pyrimidin-5-one] here?
A: The EC50 was 1000 to 10000 nM.

Q: CCOc1ccc(Cn2c(=O)n3ncnc3c3c4c(sc32)COCC4)cc1 [Example 97, 6-(4-Ethoxybenzyl)-6,8,10,11-tetrahydro-5H-pyrano[4′,3′:4,5]thieno[3,2-e][1,2,4]triazolo[1,5-c]pyrimidin-5-one] was tested. Which EC50 did it give?
A: Its EC50 is 1000 to 10000 nM.

Q: With O=c1n(Cc2ccc(Cl)cc2)c2sc3c(c2c2ncnn12)CCNC3 [Example 99, 6-(4-Chlorobenzyl)-8,9,10,11-tetrahydropyrido[4′,3′:4,5]thieno[3,2-e][1,2,4]triazolo[1,5-c]pyrimidin-5(6H)-one] as the molecule, how does the EC50 read?
A: Its EC50 is 1000 to 10000 nM.

Q: For COc1ccc(Cn2c(=O)n3ncnc3c3c4c(sc32)NCCC4)cc1OC [Example 100, 6-(3,4-Dimethoxybenzyl)-8,9,10,11-tetrahydropyrido[3′,2′:4,5]thieno[3,2-e][1,2,4]triazolo[1,5-c]pyrimidin-5(6H)-one], which EC50 is on record?
A: The EC50 was 1000 to 10000 nM.

Q: With COc1ccc(Cn2c(=O)n3nccc3c3cc(CN4C[C@@H](C)O[C@@H](C)C4)sc32)cc1 [Example 104, 2-(((2S,6R)-2,6-Dimethylmorpholino)methyl)-4-(4-methoxybenzyl)pyrazolo[1,5-c]thieno[3,2-e]pyrimidin-5(4H)-one] as the molecule, how does the EC50 read?
A: Its EC50 is 100 to 1000 nM.

Q: O=c1n(Cc2ccc(Cl)cc2)c2sc3c(c2c2ncnn12)CCN(CC(F)(F)F)C3 [Example 107, 6-(4-Chlorobenzyl)-9-(2,2,2-trifluoroethyl)-8,9,10,11-tetrahydropyrido[4′,3′:4,5]thieno[3,2-e][1,2,4]triazolo[1,5-c]pyrimidin-5 (6H)-one] was tested. Which EC50 did it give?
A: The EC50 was 100 to 1000 nM.

Same assay, conditions: negative log of half-maximal molar inhibitory concentration; 200 nM FAM-cAMP; reported as ranges

Q: COc1c(F)cc(Cn2c(=O)n3ncnc3c3c4c(sc32)COCC4)cc1F [Example 98, 6-(3,5-Difluoro-4-methoxybenzyl)-6,8,10,11-tetrahydro-5H-pyrano[4′,3′:4,5]thieno[3,2-e][1,2,4]triazolo[1,5-c]pyrimidin-5-one] was tested. Which “PDE1b (pEC50)” value did it give?
A: Its value is under 5.

Q: How did the “PDE1b (pEC50)” value turn out when COc1ccc(Cn2c(=O)n3nccc3c3cc(CN4C[C@@H](C)O[C@@H](C)C4)sc32)cc1 [Example 104, 2-(((2S,6R)-2,6-Dimethylmorpholino)methyl)-4-(4-methoxybenzyl)pyrazolo[1,5-c]thieno[3,2-e]pyrimidin-5(4H)-one] was run?
A: Its value is over 7.

Q: COc1ccc(Cn2c(=O)n3ncnc3c3c4c(sc32)CN(Cc2nnc(C)s2)CC4)cc1 [Example 108, 6-(4-Methoxybenzyl)-9-((5-methyl-1,3,4-thiadiazol-2-yl)methyl)-8,9,10,11-tetrahydropyrido[4′,3′:4,5]thieno[3,2-e][1,2,4]triazolo[1,5-c]pyrimidin-5(6H)-one] was tested. Which “PDE1b (pEC50)” value did it give?
A: Its value is over 7.

Q: For COc1ccc(Cn2c(=O)n3ncnc3c3c4c(sc32)CN(CC2CC2)CC4)cc1 [Example 110, 9-(Cyclopropylmethyl)-6-(4-methoxybenzyl)-8,9,10,11-tetrahydropyrido[4′,3′:4,5]thieno[3,2-e][1,2,4]triazolo[1,5-c]pyrimidin-5 (6H)-one], which “PDE1b (pEC50)” value is on record?
A: The value was over 7.
